Data as given in patent US10597398B2, “Suppression and regeneration promoting effect of low molecular weight compound on cancer and fibrosis” (NATIONAL UNIVERSITY CORPORATION TOTTORI UNIVERSITY, priority 2015, dated 2020).

Legend:
Type in all cases: cell-based, human
Wnt/β-catenin signaling [1] = assay: Inhibitory effect on Wnt/β-catenin signaling in liver stellate cells (LX-2, TCF4 luciferase); conditions: concentration equal to or lower than that of IC-2
Description: While each compound was added at concentrations where the cell growth of fibrosis-causing liver stellate LX-2 cells was reduced to about 50 to 80%, Wnt/β-catenin signaling activity was measured. […] The concentrations of the respective compounds were as described in FIG. 41. Each control sample used was 0.1% DMSO, a solvent for each compound.
LX-2 cells, which were cultured and maintained by using 10% FBS/DMEM, were harvested and seeded (n=3) in 1% FBS/DMEM at 4.0×10^4 cells per well of a 24-well plate. Next, 25 μL of Opti-MEM (Gibco, Life Technologies Corp., Carlsbad, Calif.) containing 50 ng of pTCF4-CMVpro-GL4.20, having 3 copies of TCF motifs (CCT TTG ATC) upstream of a CMV promoter in a multiple cloning site of pGL4.20 (Promega), and 5 ng of pRL-CMV Vector (Promega) and 25 μL of Opti-MEM containing 0.4 μL of Lipofectamine 2000 (Invitrogen, Life Technologies Corp., Carlsbad, Calif.) were mixed and incubated at room temperature for 20 min. At 20 h after the cell seeding, the mixture was added to each well, so that both reporter plasmids were transiently transfected into the cells. After additional 4 h, 2.5 ng/mL of TGF-β and each compound were added to the cells and the mixture was cultured at 37° C.
At 24 and 48 h after the compound treatment, the culture medium was discarded, and 100 μL of room temperature 5×Passive Lysis Buffer (PLB), which had been diluted 5-fold with MilliQ water, was added to each well. Next, the plate was shaken at room temperature for 15 min and was then frozen at −30° C. overnight. A Luciferase Assay Substrate was diluted with 10 mL of room temperature Luciferase Assay Buffer II to prepare Luciferase Assay Reagent II (LARII). Then, 1 μL of Stop&Glo Substrate was diluted with 49 μL of room temperature Stop&Glo Buffer to prepare Stop&Glo (Promega) in a quantity enough for samples.
The frozen PLB lysate samples were thawed and permeabilized for 15 min. After that, 50 μl aliquots of LARII were dispensed into 3.5 mL test tubes (Sarstedt, AG & Co., Numbrecht, Germany) and 10 μL of each frozen PLB lysate sample was added and mixed well. Subsequently, luminescence was quantified by using a MiniLumat LB 9506 (Berthold Technologies GmbH & Co, Bad Wildbad, Germany) to measure firefly luciferase activity. After the measurement, 50 μL of Stop&Glo was added and mixed well and luminescence was then quantified by using the MiniLumat LB 9506 to determine Renilla luciferase activity. The measurement results were obtained by dividing the firefly luciferase activity by the Renilla luciferase activity.

LX-2 cells = assay: Anti-fibrosis effect, summary statements on Example 3 (marker not specified)
Description: α-Smooth muscle actin (α-SMA), a fibrosis marker, was used as an indicator, and RNA was collected from LX-2 cells treated with each low-molecular-weight compound. Next, an inhibitory effect on fibrosis was examined by real-time RT-PCR.
In addition, instead of α-SMA, another fibrosis marker collagen, type I, alpha 1 (COL1A1) was used as an indicator, and substantially the same protocol was repeated. The concentrations of each compound used were as described in FIG. 34. Each control sample used was 0.1% DMSO, a solvent for each compound. Here, COL1A1 primers used were 5′-CCT CCA GGG CTC CAA CGA G-3′ and 5′-TCAATCACTGTCTTGCCCCA-3′. The annealing was performed at 58° C. for 5 sec. The measurement results were obtained by dividing the calculated value for the COL1A1 gene by the calculated value for the GAPDH gene.

mesenchymal stem cell = assay: Hepatocyte differentiation-inducing effect, summary statements on Example 4 (readout not specified)
Description: Albumin, a hepatocyte marker, was used as an indicator, and RNA was collected from cells treated with each compound. Next, a hepatocyte differentiation-inducing effect was examined by real-time RT-PCR. The concentrations of the respective compounds were as described in FIG. 35. Each control sample used was 0.1% DMSO, a solvent for each compound.
By using urea synthesis, a hepatocyte function, as an indicator, a hepatocyte differentiation-inducing effect of each compound was investigated.
The cells treated with each compound were subjected to immunofluorescence analysis of albumin, a hepatocyte marker, to investigate a hepatocyte differentiation-inducing effect. The concentrations of the respective compounds were as described in FIG. 37. Each control sample used was 0.1% DMSO, a solvent for each compound.
By using glycogen synthesis, a hepatocyte function, as an indicator, a hepatocyte differentiation-inducing effect of each compound was investigated.

HuH-7 cells = assay: Growth inhibitory effect on cancer cells (WST assay), Example 2.3; conditions: for IC50: HuH-7 cells, WST assay, concentrations 0-50 μM, control 0.1% DMSO; for IC50 compared with IC-2: comparison with IC-2
Description: HuH-7 cells, a human liver cancer cell line, were cultured on 10-cm cell culture dishes (TPP Techno Plastic Products AG, Trasadingen, Switzerland) by using DMEM under conditions at 5% CO2, 37° C., and 100% humidity. When the cells were 70 to 90% confluent, 200 μL of 0.25% Trypsin/1 mM EDTA solution, which had been prepared by diluting the stock solution 10-fold with PBS (−), was added to detach the cells. Then, the cells were centrifuged at 1000 rpm for 3 min at room temperature. The cells recovered were subcultured at a 1:4 split ratio.
First, 70 to 90% confluent HuH-7 cells were harvested and seeded (n=3) at 5×10^3 cells/well of a 96-well plate (TPP). After 24 h, each compound was added to the cells and the mixture was cultured at 37° C. The concentrations of each compound were 0, 10, 20, 30, 40, and 50 μM. For IC-2-506-1, however, the concentrations used were 0, 10, 20, 25, 30, 40, and 50 μM. Each control sample (0 μM) used was 0.1% DMSO, a solvent for each compound.
Next, 0, 24, 48, and 96 h after the compound treatment, 100 μIL of DMEM-diluted 10% Cell Counting Kit-8 (DOJINDO LABORATORIES, Kumamoto) was added. The mixture was incubated at 37° C. for 60 min and its absorbance (at a measurement wavelength of 450 nm/control wavelength of 600 nm) was measured by using a Sunrise Rainbow RC (Tecan Group Ltd., Mannedorf, Switzerland). Absorbance for the cells alone was calculated by subtracting, from the reading obtained, absorbance for 10% Cell Counting Kit-8 alone.
The “*” in figures indicates a significant difference of p<0.05 between 0.1% DMSO and each compound; and the “**” indicates a significant difference of p<0.01 (the same applies to all the figures in Examples).

Wnt/β-catenin signaling [2] = assay: Inhibitory effect on Wnt/β-catenin signaling in liver cancer cells (HuH7-TCF4 luciferase); conditions: concentration equal to or lower than that of IC-2
Description: A pTCF4-CMVpro-GL4.20 plasmid vector, which had been constructed by inserting 3 copies of TCF4 motifs (CCT TTG ATC) upstream of a CMV promoter into a multiple cloning site of pGL4.20 (Promega Corp., Fitchburg, Wis.), was linearized and stably transfected into the HuH-7 cells. The resulting stable cells (HuH7-TCF4 cells) and HuH-7 cells were likewise cultured.
While each compound was added at concentrations where the growth of HuH-7 cells was reduced to about 50% or less, Wnt/β-catenin signaling activity was measured. The concentrations of the respective compounds were as described in FIG. 40. Control samples used were 0.1% DMSO, a solvent for each compound, and 0.5 μM 5-FU.
First, 70 to 90% confluent HuH7-TCF4 cells were harvested and seeded (n=3) at 5.0×10^4 cells/well of a 24-well plate (TPP). After 24 h, each compound was added to the cells and the mixture was cultured at 37° C.
At 48 h after the compound treatment, the culture medium was discarded, and 100 μL of room temperature 5×Passive Lysis Buffer (PLB) (Promega Corp., Fitchburg, Wis.), which had been diluted 5-fold with MilliQ water, was added to each well. Next, the plate was shaken at room temperature for 15 min and was then frozen at −30° C. overnight. A Luciferase Assay Substrate was diluted with 10 mL of room temperature Luciferase Assay Buffer II to prepare Luciferase Assay Reagent II (LARII) (Promega). The frozen PLB lysate samples were thawed and permeabilized for 15 min. Then, 10 μL aliquots were added to wells of a 96-well white plate (Corning Inc., Corning, N.Y.). While 50 μL aliquots of LARII were each added to each well, luminescence was quantified by using a 1420 multi-label counter ARVO MX (PerkinElmer Singapore Pte Ltd., Singapore) to determine firefly luciferase activity. Note that a significant difference was evaluated by using (two-tailed) Student's t-test. The “*” in figures indicates a significant difference of p<0.05 between 0.1% DMSO and each compound; and the “**” indicates a significant difference of p<0.01 (the same applies to all the figures in Examples).

hepatocyte-inducing effect compared with IC-2 (mesenchymal stem cell; concentration higher than that of IC-2) | IC50 (HuH-7 cells) [µM] | IC50 compared with IC-2 (HuH-7 cells) | hepatocyte-inducing effect at low concentration (mesenchymal stem cell; low concentration) | Compound | inhibitory effect on Wnt/β-catenin signaling pathway in liver stellate cells compared with IC-2 (Wnt/β-catenin signaling [1]) | anti-fibrosis effect compared with IC-2, equal or higher concentration (LX-2 cells; concentration equal to or higher than that of IC-2) | inhibitory effect on Wnt/β-catenin signaling pathway in liver cancer cells compared with IC-2 (Wnt/β-catenin signaling [2]) | anti-fibrosis effect compared with IC-2, lower concentration (LX-2 cells; concentration even lower than that of IC-2) | anti-tumor effect compared with IC-2 (HuH-7 cells; at a concentration lower than that of IC-2)
more potent hepatocyte-inducing effect | 25.6 | lower IC50 than IC-2 | – | O=C1C(Cc2ccccc2)N2C(=O)CCN(C(=O)NCc3ccccc3)C2CN1Cc1ccc(Cl)cc1Cl (stereo not drawn) [IC-2-506-2] | more potent inhibitory effect | more potent anti-fibrosis effect | – | – | –
– | 14.4 | lower IC50 than IC-2 | exerted a hepatocyte-inducing effect | O=C1C(Cc2ccccc2)N2C(=O)CCN(C(=O)NCc3ccc(Cl)cc3)C2CN1Cc1cccc2ccccc12 (stereo not drawn) [IC-2-Cl] | more potent inhibitory effect | – | more potent inhibitory effect | more potent anti-fibrosis effect | more potent anti-tumor effect
